Assay results published in patent US20020094988A1, “Method of treating erectile dysfunction” (priority 1999, published 2002).
Structures can show the parent of a compound that is named as a salt.

Tested on: person with erectile dysfunction
Assay: Erectile strength rated on a unilinear scale of 1 to 10 in treated patients
Format: in vivo, human
From the text: Subsequent discontinuation of Pavabid and Trental and placed on Viagra alone.

CCCc1nn(C)c2c(=O)[nH]c(-c3cc(S(=O)(=O)N4CCN(C)CC4)ccc3OCC)nc12 [Viagra, sildenafil citrate]
erectile strength (Example 1: person, rated 3 before treatment): 7 | erectile strength (Example 2: person, rated 2 prior to treatment): 6
